These results are taken from article PMC7880690, “Chemical genetics and proteome-wide site mapping reveal cysteine MARylation by PARP-7 on immune-relevant protein targets” (eLife, 2021).

Experiment [1] has as its target T1, PARP3FL (Homo sapiens, UniProt Q9Y6F1).
T1 sequence (Q9Y6F1 1-533): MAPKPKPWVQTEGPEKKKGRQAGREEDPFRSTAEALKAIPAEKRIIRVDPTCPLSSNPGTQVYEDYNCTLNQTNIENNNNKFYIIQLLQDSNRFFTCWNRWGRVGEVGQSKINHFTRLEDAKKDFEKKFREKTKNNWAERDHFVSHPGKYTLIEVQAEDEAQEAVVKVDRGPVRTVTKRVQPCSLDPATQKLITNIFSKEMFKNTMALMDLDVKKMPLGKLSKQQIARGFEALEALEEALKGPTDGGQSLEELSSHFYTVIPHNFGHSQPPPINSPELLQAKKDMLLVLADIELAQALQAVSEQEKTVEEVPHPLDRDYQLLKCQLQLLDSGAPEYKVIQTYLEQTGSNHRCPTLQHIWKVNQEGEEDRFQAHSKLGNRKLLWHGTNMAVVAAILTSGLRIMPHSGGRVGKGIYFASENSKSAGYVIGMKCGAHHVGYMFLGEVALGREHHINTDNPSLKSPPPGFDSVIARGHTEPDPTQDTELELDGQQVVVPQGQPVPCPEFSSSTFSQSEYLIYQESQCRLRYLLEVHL
The experiment in a line: ADP-ribosylation plate assay, PARP3FL.

Experiment [2] addresses PARP2FL (Homo sapiens, UniProt Q9UGN5). The experiment in a line: ADP-ribosylation plate assay, PARP2FL.
The target in experiment [3] is T2, PARP5bcat (Homo sapiens, UniProt Q9H2K2).
T2 construct: PARP5bcat
Nature of the experiment: ADP-ribosylation plate assay, PARP5bcat. It counts as biochemical. The following applies: in vitro plate assay; ± SEM, at least two biological replicates.

Experiment [4] deals with T3, PARP-7 (Homo sapiens, UniProt Q7Z3E1).
T3 sequence (Q7Z3E1 1-657): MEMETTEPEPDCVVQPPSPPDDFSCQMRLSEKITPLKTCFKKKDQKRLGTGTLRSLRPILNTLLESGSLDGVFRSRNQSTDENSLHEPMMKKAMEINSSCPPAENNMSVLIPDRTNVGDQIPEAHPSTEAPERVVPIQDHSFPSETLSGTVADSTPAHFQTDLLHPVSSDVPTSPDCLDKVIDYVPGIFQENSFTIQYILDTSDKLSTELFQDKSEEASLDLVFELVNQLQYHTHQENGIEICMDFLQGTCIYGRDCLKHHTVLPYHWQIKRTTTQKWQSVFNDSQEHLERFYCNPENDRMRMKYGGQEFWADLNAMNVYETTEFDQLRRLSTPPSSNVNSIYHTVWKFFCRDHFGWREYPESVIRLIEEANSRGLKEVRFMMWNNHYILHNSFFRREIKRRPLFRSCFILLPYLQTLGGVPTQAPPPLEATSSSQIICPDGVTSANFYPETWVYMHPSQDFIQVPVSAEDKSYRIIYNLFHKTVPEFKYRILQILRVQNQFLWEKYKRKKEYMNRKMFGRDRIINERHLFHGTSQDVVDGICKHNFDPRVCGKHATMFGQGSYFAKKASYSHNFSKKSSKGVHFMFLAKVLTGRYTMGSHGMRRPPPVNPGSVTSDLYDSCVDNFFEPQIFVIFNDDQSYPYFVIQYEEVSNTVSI
Nature of the experiment: Endogenous PARP-7 protein levels in A549 cells, western blot. The following applies: A549 cells treated with Phthal01.

Experiment [5] has as its target T4, PARP16FL (Homo sapiens, UniProt Q8N5Y8).
T4 sequence (Q8N5Y8 1-322): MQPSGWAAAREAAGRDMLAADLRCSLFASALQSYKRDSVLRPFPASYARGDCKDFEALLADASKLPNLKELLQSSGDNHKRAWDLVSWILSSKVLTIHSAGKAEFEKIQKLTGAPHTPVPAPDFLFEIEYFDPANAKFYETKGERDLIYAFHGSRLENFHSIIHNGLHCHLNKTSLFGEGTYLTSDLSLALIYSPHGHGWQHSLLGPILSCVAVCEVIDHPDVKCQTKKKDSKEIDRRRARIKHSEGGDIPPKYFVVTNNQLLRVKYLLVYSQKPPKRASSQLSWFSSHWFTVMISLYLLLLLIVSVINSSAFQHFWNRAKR
Nature of the experiment: ADP-ribosylation plate assay, PARP16FL.

Experiment [6] concerns the target T5, PARP-10 (Homo sapiens, UniProt Q53GL7).
T5 sequence (Q53GL7 1-1025): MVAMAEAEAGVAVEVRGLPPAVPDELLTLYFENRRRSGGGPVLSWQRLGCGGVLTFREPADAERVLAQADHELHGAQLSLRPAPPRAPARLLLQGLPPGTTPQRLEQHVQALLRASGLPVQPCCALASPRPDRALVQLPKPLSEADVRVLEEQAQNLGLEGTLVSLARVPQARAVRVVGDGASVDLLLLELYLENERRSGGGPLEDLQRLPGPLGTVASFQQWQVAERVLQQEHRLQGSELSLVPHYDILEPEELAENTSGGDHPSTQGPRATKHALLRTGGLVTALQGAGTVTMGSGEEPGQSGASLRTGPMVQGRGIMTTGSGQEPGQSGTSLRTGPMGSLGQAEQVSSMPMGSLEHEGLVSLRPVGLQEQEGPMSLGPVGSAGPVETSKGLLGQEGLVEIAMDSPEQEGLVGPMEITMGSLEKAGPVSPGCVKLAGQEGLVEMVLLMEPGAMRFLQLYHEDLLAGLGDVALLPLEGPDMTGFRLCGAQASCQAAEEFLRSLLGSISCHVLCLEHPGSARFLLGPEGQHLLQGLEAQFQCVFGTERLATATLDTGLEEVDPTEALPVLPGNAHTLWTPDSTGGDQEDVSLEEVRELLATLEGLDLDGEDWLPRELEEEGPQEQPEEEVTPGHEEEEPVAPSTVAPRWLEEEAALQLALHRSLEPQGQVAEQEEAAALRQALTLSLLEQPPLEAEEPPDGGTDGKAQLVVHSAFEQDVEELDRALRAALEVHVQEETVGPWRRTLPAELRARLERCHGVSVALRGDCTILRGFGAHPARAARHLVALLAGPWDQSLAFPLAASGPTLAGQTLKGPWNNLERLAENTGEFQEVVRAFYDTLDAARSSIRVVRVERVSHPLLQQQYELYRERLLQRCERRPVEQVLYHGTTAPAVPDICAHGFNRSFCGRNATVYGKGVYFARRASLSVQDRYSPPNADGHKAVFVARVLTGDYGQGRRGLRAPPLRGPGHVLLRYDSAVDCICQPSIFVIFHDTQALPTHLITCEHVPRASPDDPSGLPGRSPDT
The experiment in a line: Auto-MARylation of PARP-10 in GFP-PARP-10 expressing HEK 293 T cells, western blot with ADPr antibody.

T2 sequence (Q9H2K2 959-1164): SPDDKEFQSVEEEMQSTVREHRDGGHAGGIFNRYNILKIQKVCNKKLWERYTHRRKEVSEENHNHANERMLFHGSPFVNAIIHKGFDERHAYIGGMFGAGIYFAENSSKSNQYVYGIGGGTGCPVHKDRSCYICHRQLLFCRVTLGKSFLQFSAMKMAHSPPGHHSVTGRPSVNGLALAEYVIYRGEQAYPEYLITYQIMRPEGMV
PARP2FL, sequence (Q9UGN5 whole entry): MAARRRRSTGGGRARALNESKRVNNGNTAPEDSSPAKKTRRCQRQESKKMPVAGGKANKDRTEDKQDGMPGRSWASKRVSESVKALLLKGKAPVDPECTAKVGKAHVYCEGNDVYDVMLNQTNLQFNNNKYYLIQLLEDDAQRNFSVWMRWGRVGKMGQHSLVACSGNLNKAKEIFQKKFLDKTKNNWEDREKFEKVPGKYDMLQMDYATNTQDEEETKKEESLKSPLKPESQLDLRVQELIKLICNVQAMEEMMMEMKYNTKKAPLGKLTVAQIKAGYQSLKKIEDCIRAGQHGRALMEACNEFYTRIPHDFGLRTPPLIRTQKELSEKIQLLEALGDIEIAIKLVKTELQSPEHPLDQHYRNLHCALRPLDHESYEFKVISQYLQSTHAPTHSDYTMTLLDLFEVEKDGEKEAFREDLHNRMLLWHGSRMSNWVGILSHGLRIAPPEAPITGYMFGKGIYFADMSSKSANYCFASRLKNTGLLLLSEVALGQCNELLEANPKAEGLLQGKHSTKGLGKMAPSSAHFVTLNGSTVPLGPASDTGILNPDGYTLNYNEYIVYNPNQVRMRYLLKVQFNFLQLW

For the compound `N#Cc1ccc(N2CCN(C(=O)c3cc(Cc4n[nH]c(=O)c5ccccc45)ccc3F)CC2)nc1` [Phthal01, 6-(4-(2-fluoro-5-((4-oxo-3,4-dihydrophthalazin-1-yl)methyl)benzoyl)piperazin-1-yl)nicotinonitrile], the IC50 in experiment [1] turned out to be 320 ± 2 nM; in experiment [2] it was 28 nM; in experiment [3] it was 2520 ± 200 nM; in experiment [5], 4.3 ± 1 µM. Also, in experiment [4], the “endogenous PARP-7 protein levels” value is listed as “increase substantially”. Also, in experiment [6], the concentration for a half-maximal effect (EC50) is around 3 µM.
